Columns and labels:
Assay in all cases: AUC of viability dose-response curve (% viability x log10 dose units); higher = less sensitive
Conditions in all cases: 48 h
[1] = test system: NOMO1
How it was run: (§1)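 Medium-adapted leukemia cells in 1536-well plates, at 500 or 1000 cells/well, were incubated for 48 h at 37°C with library compounds in DMSO at 11 threefold doses from 47 μM to 0.79 nM. CellTiter-Glo One luminescence normalised per plate to DMSO and cell-free wells was fitted with a four-parameter log-logistic model over log10 doses. Area under the curve was integrated from this fit by trapezoidal rule, with curves beyond full viability scaled and failed quality-control curves removed.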

[2] = test system: P12-Ichikawa
How it was run: as §1

[3] = test system: SEM cells
How it was run: as §1

[4] = RPMI 5 mM glucose + 10% dialyzed FBS

Row | SMILES | AUC of viability dose-response curve ([1]; HPLM + 10% dialyzed FBS) | AUC of viability dose-response curve ([1]; RPMI 5 mM glucose + 10% FBS) | AUC of viability dose-response curve [1, 4] | AUC of viability dose-response curve ([2]; HPLM + 10% dialyzed FBS) | AUC of viability dose-response curve ([2]; RPMI 5 mM glucose + 10% FBS) | AUC of viability dose-response curve [2, 4] | AUC of viability dose-response curve ([3]; HPLM + 10% dialyzed FBS) | AUC of viability dose-response curve ([3]; RPMI 5 mM glucose + 10% FBS) | AUC of viability dose-response curve [3, 4]
1 | Cc1ccccc1C(=O)Nc1ccc(C(=O)N2CCCC(O)c3cc(Cl)ccc32)c(C)c1 (centres undefined) | 452 | 471 | 471 | 461 | 462 | 469 | 460 | 455 | 446
2 | CC1=CC(=CC(=C1C\C2=N\CCN2)C)C(C)(C)C | 395 | 420 | 407 | 473 | 458 | 463 | 443 | 471 | 460
3 | CC(C)(O)CC(=O)NCCn1ccc2ncnc(Nc3ccc(Oc4cccc(C(F)(F)F)c4)c(Cl)c3)c21 | 415 | 450 | 433 | 425 | 437 | 436 | 436 | 415 | 432
4 | CNc1nc(Nc2cnn([C@H]3CCN(C4COC4)C[C@@H]3F)c2Cl)ncc1C(F)(F)F | 316 | 360 | 391 | 368 | 400 | 397 | 388 | 276 | 363
5 | CC(C(=O)O)c1ccc2c(c1)CC(=O)c1ccccc1S2 (centres undefined) | 389 | 418 | 415 | 427 | 418 | 425 | 440 | 461 | 458
6 | CNC(=O)c1ccc(Nc2cc(Nc3ccccc3[S+](=O)([O-])C(C)C)c3cc[nH]c3n2)nc1 | 422 | 407 | 414 | 367 | 355 | 377 | 319 | 345 | 323

Source: the supplement of paper PMC11451515
